Assay [1] concerns Platelet. Put plainly: Inhibition of platelet activating factor-induced platelet aggregation in rabbit plasma at 300 uM preincubated 3 mins before addition of thrombin by turbidimetric method. It counts as functional, Oryctolagus cuniculus. Also on record: scale not given: the % may be the effect or the level left.
Assay [2] concerns Aorta. Put plainly: Inhibition of Ca2+-induced Wistar rat thoracic aorta contraction at 150 uM in high K+ medium pretreated 15 mins before addition of Ca2+ and K+ relative to control. The assay is classed as functional. More on the design: scale not given: the % may be the effect or the level left.
In assay [3] the test system is Aorta. Put plainly: Inhibition of noradrenaline-induced Wistar rat thoracic aorta tonic contraction in high K+ medium at 150 uM pretreated 15 mins before addition of Ca2+ and K+ relative to control. More on the design: scale not given: the % may be the effect or the level left. It counts as functional.
The test system of assay [4] is Aorta. The experiment in a line: Inhibition of noradrenaline-induced Wistar rat thoracic aorta phasic contraction in high K+ medium at 150 uM pretreated 15 mins before addition of Ca2+ and K+ relative to control. More on the design: scale not given: the % may be the effect or the level left. The assay is classed as functional.
The subject of assay [5] is Platelet. The experiment in a line: Inhibition of thrombin-induced platelet aggregation in rabbit plasma at 300 uM preincubated 3 mins before addition of thrombin by turbidimetric method. It counts as functional, Oryctolagus cuniculus. Also on record: scale not given: the % may be the effect or the level left.
Assay [6] concerns Platelet. Put plainly: Inhibition of collagen-induced platelet aggregation in rabbit plasma at 300 uM preincubated 3 mins before addition of thrombin by turbidimetric method. The assay is classed as functional, Oryctolagus cuniculus. Also on record: scale not given: the % may be the effect or the level left.
The test system of assay [7] is Platelet. Put plainly: Inhibition of arachidonic acid-induced platelet aggregation in rabbit plasma at 300 uM preincubated 3 mins before addition of thrombin by turbidimetric method. The assay is classed as functional, Oryctolagus cuniculus. Also on record: scale not given: the % may be the effect or the level left.
Assay [8] relates to Aorta. Put plainly: Inhibition of noradrenaline-induced Wistar rat thoracic aorta phasic contraction in high K+ medium pretreated 15 mins before addition of Ca2+ and K+ relative to control.
Assay [9] deals with Platelet. The experiment in a line: Inhibition of arachidonic acid-induced platelet aggregation in rabbit plasma at 150 uM preincubated 3 mins before addition of thrombin by turbidimetric method. It counts as functional, Oryctolagus cuniculus. More on the design: scale not given: the % may be the effect or the level left.
The test system of assay [10] is Platelet. Put plainly: Inhibition of arachidonic acid-induced platelet aggregation in rabbit plasma at 30 uM preincubated 3 mins before addition of thrombin by turbidimetric method. The assay is classed as functional, Oryctolagus cuniculus. Also on record: scale not given: the % may be the effect or the level left.
Assay [11] relates to Aorta. Put plainly: Inhibition of noradrenaline-induced Wistar rat thoracic aorta tonic contraction in high K+ medium at 90 uM pretreated 15 mins before addition of Ca2+ and K+ relative to control. It counts as functional. More on the design: scale not given: the % may be the effect or the level left.
The subject of assay [12] is Platelet. The experiment in a line: Inhibition of arachidonic acid-induced platelet aggregation in rabbit plasma at 15 uM preincubated 3 mins before addition of thrombin by turbidimetric method. More on the design: scale not given: the % may be the effect or the level left. The assay is classed as functional, Oryctolagus cuniculus.
In assay [13] the test system is Aorta. The experiment in a line: Inhibition of noradrenaline-induced Wistar rat thoracic aorta tonic contraction in high K+ medium at 9 uM pretreated 15 mins before addition of Ca2+ and K+ relative to control. It counts as functional. Also on record: scale not given: the % may be the effect or the level left.
Assay [14] has as its system Aorta. The experiment in a line: Inhibition of noradrenaline-induced Wistar rat thoracic aorta tonic contraction in high K+ medium at 300 uM pretreated 15 mins before addition of Ca2+ and K+ relative to control. It counts as functional. More on the design: scale not given: the % may be the effect or the level left.
For assay [15], the system named is Aorta. Put plainly: Inhibition of Ca2+-induced Wistar rat thoracic aorta contraction at 90 uM in high K+ medium pretreated 15 mins before addition of Ca2+ and K+ relative to control. The assay is classed as functional. Also on record: scale not given: the % may be the effect or the level left.
The test system of assay [16] is Platelet. Put plainly: Inhibition of arachidonic acid-induced platelet aggregation in rabbit plasma preincubated 3 mins before addition of thrombin by turbidimetric method. The note with it: Oryctolagus cuniculus.
Assay [17] deals with Aorta. Put plainly: Inhibition of Ca2+-induced Wistar rat thoracic aorta contraction at 30 uM in high K+ medium pretreated 15 mins before addition of Ca2+ and K+ relative to control. It counts as functional. More on the design: scale not given: the % may be the effect or the level left.
Assay [18] has as its system Aorta. Put plainly: Inhibition of Ca2+-induced Wistar rat thoracic aorta contraction in high K+ medium pretreated 15 mins before addition of Ca2+ and K+.
Assay [19] deals with Aorta. The experiment in a line: Inhibition of noradrenaline-induced Wistar rat thoracic aorta tonic contraction in high K+ medium at 30 uM pretreated 15 mins before addition of Ca2+ and K+ relative to control. The assay is classed as functional. More on the design: scale not given: the % may be the effect or the level left.
Assay [20] concerns Aorta. The experiment in a line: Inhibition of noradrenaline-induced Wistar rat thoracic aorta phasic contraction in high K+ medium at 90 uM pretreated 15 mins before addition of Ca2+ and K+ relative to control. It counts as functional. Also on record: scale not given: the % may be the effect or the level left.
For assay [21], the system named is Aorta. The experiment in a line: Inhibition of noradrenaline-induced Wistar rat thoracic aorta phasic contraction in high K+ medium at 30 uM pretreated 15 mins before addition of Ca2+ and K+ relative to control. The assay is classed as functional. Also on record: scale not given: the % may be the effect or the level left.
Assay [22] deals with Aorta. Put plainly: Inhibition of noradrenaline-induced Wistar rat thoracic aorta phasic contraction in high K+ medium at 9 uM pretreated 15 mins before addition of Ca2+ and K+ relative to control. The assay is classed as functional. Also on record: scale not given: the % may be the effect or the level left.
Assay [23] concerns Platelet. The experiment in a line: Inhibition of arachidonic acid-induced platelet aggregation in rabbit plasma at 60 uM preincubated 3 mins before addition of thrombin by turbidimetric method. The assay is classed as functional, Oryctolagus cuniculus. More on the design: scale not given: the % may be the effect or the level left.
For assay [24], the system named is Aorta. Put plainly: Inhibition of noradrenaline-induced Wistar rat thoracic aorta phasic contraction in high K+ medium at 300 uM pretreated 15 mins before addition of Ca2+ and K+ relative to control. The assay is classed as functional. More on the design: scale not given: the % may be the effect or the level left.
The test system of assay [25] is Aorta. Put plainly: Inhibition of noradrenaline-induced Wistar rat thoracic aorta tonic contraction in high K+ medium pretreated 15 mins before addition of Ca2+ and K+ relative to control.
Assay [26] concerns Aorta. Put plainly: Inhibition of Ca2+-induced Wistar rat thoracic aorta contraction at 300 uM in high K+ medium pretreated 15 mins before addition of Ca2+ and K+ relative to control. It counts as functional. More on the design: scale not given: the % may be the effect or the level left.
Assay [27] has as its system Platelet. The experiment in a line: Inhibition of arachidonic acid-induced platelet aggregation in rabbit plasma at 50 uM preincubated 3 mins before addition of thrombin by turbidimetric method. It counts as functional, Oryctolagus cuniculus. Also on record: scale not given: the % may be the effect or the level left.
For assay [28], the system named is Platelet. Put plainly: Inhibition of collagen-induced platelet aggregation in rabbit plasma at 50 uM preincubated 3 mins before addition of thrombin by turbidimetric method. The assay is classed as functional, Oryctolagus cuniculus. More on the design: scale not given: the % may be the effect or the level left.
Assay [29] relates to Platelet. The experiment in a line: Inhibition of platelet activating factor-induced platelet aggregation in rabbit plasma at 50 uM preincubated 3 mins before addition of thrombin by turbidimetric method. The assay is classed as functional, Oryctolagus cuniculus. Also on record: scale not given: the % may be the effect or the level left.
The subject of assay [30] is Platelet. The experiment in a line: Inhibition of thrombin-induced platelet aggregation in rabbit plasma at 50 uM preincubated 3 mins before addition of thrombin by turbidimetric method. The assay is classed as functional, Oryctolagus cuniculus. More on the design: scale not given: the % may be the effect or the level left.
In assay [31] the test system is Platelet. Put plainly: Inhibition of arachidonic acid-induced platelet aggregation in rabbit plasma at 100 uM preincubated 3 mins before addition of thrombin by turbidimetric method. The assay is classed as functional, Oryctolagus cuniculus. More on the design: scale not given: the % may be the effect or the level left.
The test system of assay [32] is Platelet. The experiment in a line: Inhibition of collagen-induced platelet aggregation in rabbit plasma at 100 uM preincubated 3 mins before addition of thrombin by turbidimetric method. It counts as functional, Oryctolagus cuniculus. Also on record: scale not given: the % may be the effect or the level left.

Regarding `O=c1cc(-c2ccc(O)c(O)c2)oc2cc(O[C@@H]3O[C@H](CO)[C@@H](O)[C@H](O)[C@H]3O)cc(O)c12` [GALUTEOLIN], the Activity in assay [1] is on record as 71.9%; in assay [2], 93.4%; in [3], 88.2%; in [4], 84.5%; in [5], 87%; in [6], 80.5%. Further, in assay [7], the Activity amounted to 80.2%.
As to `O=c1cc(-c2ccc(O)c(O)c2)oc2cc(O)c([C@@H]3O[C@H](CO[C@@H]4O[C@H](CO)[C@@H](O)[C@H](O)[C@H]4O)[C@@H](O)[C@H](O)[C@H]3O)c(O)c12`, the Activity was 83.5% in assay [1], 85.7% in [5], 85.4% in assay [6] and 83.3% in assay [7].
Consider `O=c1cc(-c2ccc(O)c(O)c2)oc2cc(O)cc(O)c12` [LUTEOLIN], for which the IC50 worked out at 68 µM in assay [8], 43.5 µM in assay [16], 156 µM in [18] and 72 µM in assay [25]. The Activity in [1] was 53%; in assay [9] it was 0%; in assay [10], 53%; in assay [11], 32.6%; in [12], 79.2%; in assay [13] it was 99.2%. In addition, the Activity is 22.9% in assay [14]; 49.9% in assay [15]; 69.5% in assay [17]; 34.7% in assay [5]; 52.3% in assay [19]; 29.3% in [20]. Moreover, the Activity in assay [21] is 64.7%; in assay [22], 92.8%; in assay [23], 20.5%; in [24], 14.9%; in assay [6], 2.8%; in assay [7] it was 0%. Besides, in assay [26], the Activity is reported as 28.6%.
For `CC(=O)OC[C@H]1O[C@@H](c2c(OC(C)=O)cc3oc(-c4ccc(OC(C)=O)c(OC(C)=O)c4)cc(=O)c3c2OC(C)=O)[C@H](OC(C)=O)[C@@H](OC(C)=O)[C@@H]1OC(C)=O` [ISOORIENTIN PERACETATE], the Activity in assay [1] was found to be 74.7%; in assay [5], 79%; in [6], 68.6%; in assay [7] it was 72.4%.
As to `CC(=O)Oc1ccccc1C(=O)O` [ASPIRIN], the Activity in [27] stood at 0%; in assay [28] it was 85.4%; in [29], 90.5%; in [30] it was 91.9%.
On to `O=c1cc(-c2ccc(O)cc2)oc2cc(O)c([C@@H]3O[C@H](CO[C@@H]4O[C@H](CO)[C@@H](O)[C@H](O)[C@H]4O)[C@@H](O)[C@H](O)[C@H]3O)c(O)c12`, for which the Activity is given as 84.6% in assay [1], 87.4% in [5], 85.6% in assay [6] and 84.9% in [7].
On to `O=c1cc(-c2ccc(O)c(O)c2)oc2cc(O)c([C@@H]3O[C@H](CO)[C@@H](O)[C@H](O)[C@H]3O)c(O)c12` [ISOORIENTIN], for which the Activity in assay [1] came to 77.1%; in assay [2], 106%; in assay [3] it was 86.6%; in assay [4] it was 91.7%; in assay [5], 85.5%; in assay [6] it was 60.8%. Also, the Activity in assay [7] amounted to 66.9%.
Regarding `CC(=O)OC[C@H]1O[C@@H](OC[C@H]2O[C@@H](c3c(OC(C)=O)cc4oc(-c5ccc(OC(C)=O)c(OC(C)=O)c5)cc(=O)c4c3OC(C)=O)[C@H](OC(C)=O)[C@@H](OC(C)=O)[C@@H]2OC(C)=O)[C@H](OC(C)=O)[C@@H](OC(C)=O)[C@@H]1OC(C)=O`, the values for the Activity in assay [31] and in assay [32] were 79.9% and 80.5%, respectively.
As for `O=c1cc(-c2ccc(O)cc2)oc2cc(O)c([C@@H]3O[C@H](CO)[C@@H](O)[C@H](O)[C@H]3O)c(O)c12` [ISOVITEXIN], the Activity in assay [1] is 83.9%; in [5], 36.5%; in assay [6] it was 84.7%; in assay [7] it was 85.1%.

In general, IC50 refers to the point on the concentration scale where inhibition reaches its midpoint.

For the origin of these results see ChEMBL document CHEMBL1146418, “A new flavone C-glycoside and antiplatelet and vasorelaxing flavones from Gentiana arisanensis” (J Nat Prod, 1997).
